Test [1] has as its system mouse bone-marrow derived macrophages.
In test [2] the target is CSF-1R (c-fms) (Homo sapiens (Human), UniProt P07333). Put plainly: Fluorescence polarization competition immunoassay (1 nM c-fms; peptide Pi assay). Type of test: biochemical. As to conditions: read-out: 1 nM c-fms; peptide Pi assay - IC-50. In general terms: Polarisation of emitted light reports the rotation of a fluorescent probe.
Procedure: Fluorescence Polarization Competition Immunoassay
The kinase reaction was initiated by adding 1 μL of 10 mM ATP in assay buffer. […] Positive and negative control wells were included on each plate, where 4% DMSO in assay buffer was substituted for the compound; in addition, positive control wells received 1.2 μL of 50 mM EDTA (ethylenediaminetetraacetic acid) before the start of the reaction.
The plates were covered, incubated for 30 min at room temperature, and the fluorescence polarization was read on an Analyst plate reader (Molecular Devices). […] Reported IC50 values are the mean of three of at least three determinations.
The target of test [3] is c-fms (Homo sapiens (Human), UniProt P07333). Description: 10 nM c-fms auto-Pi assay. The format is biochemical. To be noted: cell printed as 0.05@0.002–2; read-out: 10 nM c-fms auto-Pi assay - IC-50.
Sequence of c-fms (P07333 20-972): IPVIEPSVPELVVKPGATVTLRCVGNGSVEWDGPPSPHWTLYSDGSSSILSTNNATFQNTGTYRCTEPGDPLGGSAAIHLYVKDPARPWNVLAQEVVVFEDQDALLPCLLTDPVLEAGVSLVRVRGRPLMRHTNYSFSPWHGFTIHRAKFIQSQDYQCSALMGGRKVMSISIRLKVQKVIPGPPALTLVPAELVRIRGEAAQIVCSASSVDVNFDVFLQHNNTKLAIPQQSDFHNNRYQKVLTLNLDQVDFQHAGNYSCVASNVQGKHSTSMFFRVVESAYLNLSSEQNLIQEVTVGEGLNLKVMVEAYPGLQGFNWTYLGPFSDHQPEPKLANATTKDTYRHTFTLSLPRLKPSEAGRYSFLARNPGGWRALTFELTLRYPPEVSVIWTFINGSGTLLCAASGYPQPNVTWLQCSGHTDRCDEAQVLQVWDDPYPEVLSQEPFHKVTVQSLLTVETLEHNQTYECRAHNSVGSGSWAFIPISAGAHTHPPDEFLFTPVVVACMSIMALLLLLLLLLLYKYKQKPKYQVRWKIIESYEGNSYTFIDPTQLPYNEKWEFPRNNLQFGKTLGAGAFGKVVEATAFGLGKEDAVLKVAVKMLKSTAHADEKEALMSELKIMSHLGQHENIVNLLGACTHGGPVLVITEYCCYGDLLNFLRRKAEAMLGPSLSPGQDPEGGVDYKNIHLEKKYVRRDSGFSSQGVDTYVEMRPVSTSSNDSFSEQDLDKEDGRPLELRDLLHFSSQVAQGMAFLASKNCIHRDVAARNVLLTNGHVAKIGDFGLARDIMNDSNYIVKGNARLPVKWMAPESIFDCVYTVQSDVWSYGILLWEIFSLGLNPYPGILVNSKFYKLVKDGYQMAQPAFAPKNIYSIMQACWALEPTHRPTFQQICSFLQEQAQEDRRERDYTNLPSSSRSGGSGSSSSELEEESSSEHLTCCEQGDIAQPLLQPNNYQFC
The mark [4] stands for this setting: read-out: mCSF driven proliferation BMDM (Mouse) - IC-50, BrDU incorporation, CSF-1 stimulated, 30 hrs culture.
[5] abbreviates: Mus musculus, BMDM, 30 h, read-out: mCSF driven proliferation BMDM (Mouse) - IC-50 (μM), BrDU incorporation, CSF-1 stimulated, 30 hrs culture.

“And” between values parts separate entries of the source, which are not always exact repeats. Equal entries are not always repeated. Structures can show the parent of a compound that is named as a salt. Where two headings read alike, the source gives them in different places. A value given as a limit tells only on which side of the number the result lay.

Sequence of CSF-1R (c-fms) (P07333 20-972): as above

In the case of `COCCNC(C)(C)c1ccc(NC(=O)c2nc(C#N)c[nH]2)c(C2=CCC(C)(C)CC2)c1` [Example 20, 4-Cyano-1H-imidazole-2-carboxy-lic acid{2-(4,4-di-methyl-cyclo-hex-1-enyl)-4-[1-(2-meth-oxy-ethyl-amino)-1-methyl-ethyl]-phenyl}-amide], the IC50 in test [1] (setting [4]) was 0.0047 µM and 0.0048 µM. Regarding `CN1CCN(C(C)(C)c2ccc(NC(=O)c3nc(C#N)c[nH]3)c(C3=CCC(C)(C)CC3)c2)CC1` [Example 23, 4-Cyano-1H-imidazole-2-carboxy-lic acid{2-(4,4-di-methyl-cyclohex-1-enyl)-4-[1-meth-yl-1-(4-methyl-piperazin-1-yl)-ethyl]-phe-nyl}-amide], in test [1] (setting [4]), the IC50 was 0.0033 µM. Same read-out and setting: the same measure for `N#Cc1c[nH]c(C(=O)Nc2ccc(CCS(=O)(=O)N3CCOCC3)cc2C2=CCCCC2)n1` [Example 26, 4-Cyano-1H-imidazole-2-carboxylic acid {2-cyclohex-1-enyl-4-[2-(morpholine-4-sulfonyl)-ethyl]-phenyl}-amide]: 0.0059 µM.

Turning to `Cc1nc(C(=O)Nc2ccc(CCN3CCOCC3)cc2C2=CCCCC2)[nH]c1C#N` [Example 33, 5-Cyano-4-methyl-1H-imidazole-2-carboxylic acid [2-cyclohex-1-enyl-4-(2-morpholin-4-yl-ethyl)-phenyl]-amide hydrochloride], the IC50 in test [2] was greater than 60 nM. Still for that read-out and setting: the same measure for `C[S+]([O-])c1ncc(C(=O)Nc2ccc(CCN3CCOCC3)cc2C2=CCCCC2)[nH]1` (centres unmarked) [Example 35, 2-Methanesulfinyl-3H-imidazole-4-carboxylic acid [2-cyclohex-1-enyl-4-(2-morpholin-4-yl-ethyl)-phenyl]-amide trifluoroacetic acid salt]: greater than 500 nM; for `CS(=O)(=O)c1ncc(C(=O)Nc2ccc(CCN3CCOCC3)cc2C2=CCCCC2)[nH]1` [Example 36, 2-Methanesulfonyl-3H-imidazole-4-carboxylic acid [2-cyclohex-1-enyl-4-(2-morpholin-4-yl-ethyl)-phenyl]-amide hydrochloride]: greater than 500 nM. For the compound `O=C(Nc1ccc(CCN2CCOCC2)cc1C1=CCCCC1)c1nc(Cl)c(Cl)[nH]1` [Example 38, 4,5-Dichloro-1H-imidazole-2-carboxylic acid [2-cyclohex-1-enyl-4-(2-morpholin-4-yl-ethyl)-phenyl]-amide trifluoroacetic acid salt], the IC50 in test [2] is greater than 60 nM. The same measure, in the same setting: as for `O=C(Nc1ccc(CCN2CCOCC2)cc1C1=CCCCC1)c1nc2ccccc2[nH]1` [Example 39, 1H-Benzoimidazole-2-carboxylic acid [2-cyclohex-1-enyl-4-(2-morpholin-4-yl-ethyl)-phenyl]-amide trifluoroacetic acid salt], the figure is greater than 60 nM.

Turning to `O=C(Nc1ccc(CCN2CCOCC2)cc1C1=CCCCC1)c1ncc(Cl)[nH]1` [Example 41, 5-Chloro-1H-imidazole-2-carboxylic acid [2-cyclohex-1-enyl-4-(2-morpholin-4-yl-ethyl)-phenyl]-amide hydrochloride], the IC50 in test [1] (setting [5]) is 0.321 µM. For `N#Cc1cnc(C(=O)Nc2ccc(CN3CCOCC3)cc2C2=CCCCC2)[nH]1` [Example 44, 5-Cyano-1H-imidazole-2-carboxylic acid (2-cyclohex-1-enyl-4-morpholin-4-ylmethyl-phenyl)-amide hydrochloride], the IC50 in test [1] (setting [5]) is 0.0164 µM; in test [1] (read-out: mCSF driven proliferation BMDM (Mouse) - IC-50, BrDU incorporation, CSF-1 stimulated, 30 hrs culture, hydrochloride), 0.0146 µM.

For `CC1(C)CC=C(c2cc(CC(=O)NCCCO)ccc2NC(=O)c2ncc(C#N)[nH]2)CC1` [Example 54, 5-Cyano-1H-imidazole-2-carboxylic acid {2-(4,4-dimethyl-cyclohex-1-enyl)-4-[(3-hydroxy-propylcarbamoyl)-methyl]-phenyl}-amide], the IC50 in test [1] (setting [5]) was greater than 0.1 µM. With `CCN(C)CCCc1ccc(NC(=O)c2ccc(C#N)o2)c(N2CCC(C)CC2)c1` [Example 55, 5-Cyano-furan-2-carboxylic acid [4-[3-(ethyl-methyl-amino)-propyl]-2-(4-methyl-piperidin-1-yl)-phenyl]-amide], the IC50 in test [3] came to 50 nM. Regarding `CC1(C)CC=C(c2cc(C(C)(C)N3CCN(CC(=O)O)CC3)ccc2NC(=O)c2nc(C#N)c[nH]2)CC1` [Example 64, (4-{1-[4-[(4-Cyano-1H-imidazole-2-carbonyl)-amino]-3-(4,4-dimethyl-cyclohex-1-enyl)-phenyl]-1-methyl-ethyl}-piperazin-1-yl)-acetic acid, sodium salt], the IC50 in test [1] (setting [5]) came to 0.2 µM.

Consider `CC1(C)CC=C(c2cc(C(C)(C)NCCO)ccc2NC(=O)c2nc(C#N)c[nH]2)CC1` [Example 65, 4-Cyano-1H-imidazole-2-carboxylic acid {2-(4,4-dimethyl-cyclohex-1-enyl)-4-[1-(2-hydroxy-ethylamino)-1-methyl-ethyl]-phenyl}-amide hydrochloride], for which the IC50 in test [1] (setting [5]) was found to be 0.0081 µM. For the compound `CC1(C)CC=C(c2cc(C(C)(C)CN3C[C@@H]4OC(C)(C)O[C@@H]4C3)ccc2NC(=O)c2nc(C#N)c[nH]2)CC1` [Example 140, 4-Cyano-1H-imidazole-2-carboxylic acid {2-(4,4-dimethyl-cyclohex-1-enyl)-4-[2-(2,2-dimethyl-tetrahydro-[1,3]dioxolo[4,5-c]pyrrol-5-yl)-1,1-dimethyl-ethyl]-phenyl}-amide], the IC50 is 0.031 µM in test [1] (setting [5]) and greater than 100 nM in test [2].

Source of the values: patent publication US8674100B2, “Inhibitors of C-FMS kinase” (Janssen Pharmaceutica, N.V., priority 2006, dated 2014).
